Experimental data as given in US5272078A, “CDNA encoding the type I iodothyronine 5'deiodinase” (Brigham and Women's Hospital, priority 1992, dated 1993).
Residue numbers refer to the chain shown, from its start. Values joined by “and” are separate entries in the source; they are usually repeats but may differ in a detail not shown here. Identical values can stand only once. Like-named read-outs stand apart in the source and are kept apart here. One block for each compound: values may come before it.

Experiments:
[1] = target: T1, Human Type I 5'-Deiodinase (Homo sapiens, UniProt P49895); experiment: Kinetics of rT3 deiodination, enzyme transiently expressed in COS-7 cells; assay type: biochemical
T1 construct: expressed in transfected cells; host or cells: COS-7 cells (cell sonicate)
T1 sequence (P49895 1-249): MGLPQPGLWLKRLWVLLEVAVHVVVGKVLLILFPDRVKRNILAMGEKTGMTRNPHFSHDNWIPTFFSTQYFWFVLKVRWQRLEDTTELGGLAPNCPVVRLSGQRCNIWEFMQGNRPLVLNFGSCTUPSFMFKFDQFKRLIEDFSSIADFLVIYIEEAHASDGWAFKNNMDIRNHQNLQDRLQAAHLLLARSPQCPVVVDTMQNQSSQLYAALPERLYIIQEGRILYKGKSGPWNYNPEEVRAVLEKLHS
Protocol: Cell sonicate protein concentration was approximately 12 mg ml^-1 by Biorad determination using gamma globulin as a standard.
Incubations were for 30 minutes at 37° C. and ^125 I was quantitated as previously described (Berry, et al., Mol. Endocrinol. 4:743-748 (1990)).

[2] = target: T2, Type I iodothyronine 5' deiodinase, TGA (selenocysteine-126) (Rattus norvegicus, UniProt P24389); experiment: Sensitivity to gold thioglucose, wild type (TGA) G21 cDNA, JEG cell sonicates; assay type: biochemical; conditions: for Deiodinase Activity of JEG cell sonicates: 10 mM DTT, 300 nM 125I rT3, 30 min
T2 construct: the full length protein terminates at the UAG codon at nucleotide 778; expressed in transfected cells; host or cells: JEG-3 human choriocarcinoma cells, vector CDM-8 (homogenates, microsomal fractions or sonicates)
T2 sequence (P24389 1-257): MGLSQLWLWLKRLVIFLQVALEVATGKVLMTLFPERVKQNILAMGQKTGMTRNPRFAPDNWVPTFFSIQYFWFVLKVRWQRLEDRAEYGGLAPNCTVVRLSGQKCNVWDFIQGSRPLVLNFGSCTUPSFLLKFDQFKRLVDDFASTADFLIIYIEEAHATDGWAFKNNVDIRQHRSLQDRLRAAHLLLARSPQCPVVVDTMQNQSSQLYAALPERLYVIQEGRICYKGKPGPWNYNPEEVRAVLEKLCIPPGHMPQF
From the text: (§1) Wild type (TGA) or cysteine mutant (TGT) G21 cDNA in CDM-8 was transfected into JEG-3 as described in Example III. […] 1β-D-Thioglucose (5 μm) had no effect on enzyme activity. 1.

human 5' deiodinase [3] = target: T3, human 5' deiodinase (Homo sapiens, UniProt P49895); experiment: Affinity labelling with bromoacetyl T3, human enzyme; assay type: binding; set-up: expressed in transfected cells; host or cells: COS-7 cells (cell sonicate)
T3 sequence (P49895 1-249): T1 sequence (P49895 1-249)
Protocol: (§2) The final product in 2 ml of acidified 20% ethanol was diluted with 3 volumes of water and purified by chromatography on a column (2.5×0.8cm) of Sephadex LH-20 (Pharmacia). […] Densitometric quantitation of the autoradiographs was performed by a Molecular Dynamics computing densitometer (Sunnyvale, Calif.).

rat 5' deiodinase = target: T4, rat 5' deiodinase (Rattus norvegicus, UniProt P24389); experiment: Affinity labelling with bromoacetyl T3, rat enzyme; assay type: binding
T4 construct: the full length protein terminates at the UAG codon at nucleotide 778; expressed in transfected cells, vector CDM-8; cell sonicate
T4 sequence (P24389 1-257): T2 sequence (P24389 1-257)
Protocol: as §2

Type I 5' deiodinase = target: T5, Type I 5' deiodinase (Rattus norvegicus, UniProt P24389); experiment: rT3 deiodination by clone G21 enzyme expressed in transfected JEG-3 cells; assay type: biochemical; conditions: for mode of inhibition: rT3 as substrate
T5 construct: the full length protein terminates at the UAG codon at nucleotide 778; expressed in transfected cells; host or cells: JEG-3 human choriocarcinoma cells, vector CDM-8 (homogenates, microsomal fractions or sonicates)
T5 sequence (P24389 1-257): T2 sequence (P24389 1-257)
From the text: To verify that this clone encoded the Type I 5' deiodinase, it was expressed in JEG-3 human choriocarcinoma cells following DNA transfection.
To confirm that this clone encoded Type I 5' deiodinase, it was expressed in JEG-3 human choriocarcinoma cells following DNA transfection.

[4] = target: T6, Liver Microsomal Human Type I 5'-Deiodinase (Homo sapiens, UniProt P49895); conditions: cited from earlier work
T6 construct: those of the human liver microsomal enzyme; from tissue; host or cells: human liver microsomes
T6 sequence (P49895 1-249): T1 sequence (P49895 1-249)

human 5' deiodinase [5] = target: T3, human 5' deiodinase; conditions: with or without 0.5 mM PTU; 100 nM 125I-T4, 25 mM DTT, 16 hours
Protocol: T4, T3 and I^- were separated by paper chromatography and identified by staining of chromatographed unlabelled standards. The ^125 I content of the products was quantitated by counting the paper strips in a gamma scintillation counter. All assays were performed in duplicate. Kinetic analyses were performed as previously described (Berry, et al., J. Biol. Chem. 266:14155-14158 (1991)) by drawing double reciprocal plots of deiodination rate vs. substrate concentration. […] Since the enzyme is not pure, all kinetic constants are apparent.

T4 to T3 conversion = conditions: cited from earlier work
Type I deiodinase = target: T7, Type I deiodinase (Rattus norvegicus, UniProt P24389); conditions: cited from earlier work
T7 sequence (P24389 1-257): T2 sequence (P24389 1-257)

[6] = target: T8, rat 5' deiodinase cysteine mutant (Rattus norvegicus, UniProt P24389, U126C); conditions: cited from earlier work
T8 sequence (P24389 1-257 U126C): T2 sequence (P24389 1-257) with U126C

5' deiodinase activity = target: T9, 5' deiodinase activity (Rattus norvegicus, UniProt P24389); conditions: rats; cited from earlier work
T9 construct: host or cells: rat, in vivo
T9 sequence (P24389 1-257): T2 sequence (P24389 1-257)

[7] = target: T10, Type I iodothyronine 5' deiodinase, TGT (cysteine-126) mutant (Rattus norvegicus, UniProt P24389, U126C); experiment: Sensitivity to gold thioglucose, cysteine mutant (TGT) G21 cDNA, JEG cell sonicates; assay type: biochemical; conditions: for Deiodinase Activity of JEG cell sonicates: 10 mM DTT, 300 nM 125I rT3, 30 min
T10 construct: expressed in transfected cells; host or cells: JEG-3 cells, vector CDM-8 (cell sonicate)
T10 sequence (P24389 1-257 U126C): T2 sequence (P24389 1-257) with U126C
From the text: as §1

[8] = PTU 100 μM, read-out: decrease in BrAcT3 labelling

Kb ([1]; apparent): 5000 µM
Compound: O[C@H](CS)[C@H](O)CS (racemic) [DTT, dithiothreitol]

effect on enzyme activity ([2]; 5 μm): no effect
Compound: OC[C@H]1O[C@@H](S)[C@H](O)[C@@H](O)[C@@H]1O [1β-D-Thioglucose]

BrAcT3 labelling of the ~28 kDa protein (human 5' deiodinase [3]; excess cold BrAcT3 (364 nM)): inhibited | BrAcT3 labelling of the ~28 kDa protein (rat 5' deiodinase; excess cold BrAcT3 (364 nM)): inhibited
Compound: O=C(CBr)NC(Cc1cc(I)c(Oc2ccc(O)c(I)c2)c(I)c1)C(=O)O (centres unmarked) [BrAcT3]

Compound: CCCc1cc(=O)[nH]c(=S)[nH]1 [PTU, propylthiouracil]
inhibition at 0.5 µM (Type I 5' deiodinase; 0.5 μM PTU): > 50% | mode of inhibition (Type I 5' deiodinase): competitive inhibitor of DTT | Ki ([4]; read-out: Ki (PTU · DTT)): 0.1 µM | Ki ([4]; read-out: Ki (PTU · rT3), 5 mM DTT): 0.28 µM | inhibition at 100 µM (human 5' deiodinase [3]; [8]): 35 to 40% | T4 to T3 conversion, sensitivity to PTU (human 5' deiodinase [5]): PTU-sensitive | inhibition at 100 µM (rat 5' deiodinase; [8]): 35 to 40% | Ki ([1]; Ki (PTU · DTT), competitive with respect to DTT, apparent): 0.014 µM | Ki ([1]; Ki (PTU · rT3), 10 mM DTT, uncompetitive inhibitor of rT3 deiodination, apparent): 0.17 µM | 131I release from T4 (T4 to T3 conversion; 100 mg, euthyroid subjects): inhibition | T4 to T3 conversion (T4 to T3 conversion; hyperthyroid patients): dose-related inhibition

Compound: N[C@@H](Cc1cc(I)c(Oc2cc(I)c(O)c(I)c2)c(I)c1)C(=O)O [T4, thyroxine]
mode of inhibition (Type I 5' deiodinase): competitive inhibitor of rT3 deiodination | BrAcT3 labelling of the ~28 kDa protein (human 5' deiodinase [3]; T4 30 μM): does not inhibit | inhibition at 30 µM (rat 5' deiodinase; T4 30 μM, read-out: reduction of BrAcT3 labelling): 67% | Ki [1]: 6.2 µM

Compound: N[C@@H](Cc1ccc(Oc2cc(I)c(O)c(I)c2)c(I)c1)C(=O)O [rT3, 3,3',5'-triiodothyronine]
Vmax (rT3) ([4]; 5 mM DTT): 128 to 242 pmol/min/mg | BrAcT3 labelling of the ~28 kDa protein (human 5' deiodinase [3]; rT3 3 μM and 10 μM): inhibited | Vmax/Km ratio for rT3 higher than for T4 (Type I deiodinase): 1000 fold | apparent Km of the cysteine mutant higher than wild type [6]: 10 fold | BrAcT3 labelling of the ~28 kDa protein (rat 5' deiodinase; rT3 3 μM and 10 μM): inhibited | Vmax (rT3) ([1]; 10 mM DTT): 63.2 ± 16.4 pmol/min/mg and 63.2 pmol/min/mg

Compound: gold
5' deiodinase activity after administration (5' deiodinase activity): Inhibition

Compound: gold thioglucose [GTG]
BrAcT3 labelling of the ~28 kDa protein (human 5' deiodinase [3]; 100 nM gold thioglucose): inhibited | Inhibition ([2]; GTG 1 nM): 0% | Deiodinase Activity of JEG cell sonicates ([2]; GTG 1 nM): 7.0 pmol rT3 min^-1 mg protein^-1 | Inhibition ([2]; GTG 10 nM): 43% | Deiodinase Activity of JEG cell sonicates ([2]; GTG 10 nM): 4.0 pmol rT3 min^-1 mg protein^-1 | Inhibition ([2]; GTG 10 nM, listed as gold thioglucose): ~ 50% | Inhibition ([2]; GTG 100 nM): 95% | Deiodinase Activity of JEG cell sonicates ([2]; GTG 100 nM): 0.95 pmol rT3 min^-1 mg protein^-1 | BrAcT3 labelling of the ~28 kDa protein (rat 5' deiodinase; 100 nM gold thioglucose): inhibited | sensitivity to inhibition compared with the native enzyme [7]: much less sensitive | Inhibition ([7]; GTG 10 nM): 0% | Deiodinase Activity of JEG cell sonicates ([7]; GTG 10 nM): 1.3 pmol rT3 min^-1 mg protein^-1 | Inhibition ([7]; GTG 100 nM): 13% | Deiodinase Activity of JEG cell sonicates ([7]; GTG 100 nM): 1.1 pmol rT3 min^-1 mg protein^-1 | Ki ([1]; read-out: Ki (GTG · rT3), 10 mM DTT, competitive, apparent): 0.0047 µM
